Reference: patent publication US5260286A, “2-piperidinecarboxylic acid derivatives useful as NMDA receptor antagonists” (Japan Tobacco, Inc., priority 1992, dated 1993)
Read-outs that look alike come from different tables or passages of the source.

How the values were obtained:
NMDA receptor = assay: In vitro binding assay, inhibition of [^3 H]CGS-19755 binding at the NMDA receptor site (semipurified synaptic membranes from rat forebrain); set-up: species or system Adult male Sprague-Dawley rats; details: 10 nM [^3 H]CGS-19755, 15 minutes at 4° C., 50 mM Tris-citrate pH 7.1; read-out: Ki [^3 H]CGS19755
Experimental: The compounds of the invention were tested for their ability to inhibit [^3 H]CGS-19755 binding. Semipurified synaptic membranes were prepared according to the method of Bristow et al. (1986) with minor modifications. Adult male Sprague-Dawley rats were decapitated, and the forebrains were removed, weighed and homogenized in 20 volumes of 0.32M sucrose. The homogenate was centrifuged at 27,000×G for 15 minutes. The pellet was resuspended in 20 volumes of distilled water followed by centrifugation at 8000×G for […]. Both the supernatant and the buffy coat layer, removed with 5 mM Tris-Cl (2 mL), pH 7.8, were pooled and centrifuged at 27,000×G for 15 minutes. The supernatant was removed and the pellet was covered with a small amount of 5 mM Tris-HCl and stored at -20° C. for least 18 hours. Membranes were then washed four times in 50 mM Tris-citrate, pH 7.1, and finally resuspended in the same buffer. This suspension was used for the binding assay immediately or frozen for subsequent use.
Aliquots of membranes (800 μl) were incubated with 10 nM [^3 H]CGS-19755 (100 μl) and varying concentrations of the test compounds (100 μl) for 15 minutes at 4° C. Then a filtration assay was used. The samples were filtered over glass fiber filters using a Brandel Cell Harvester. […]
Ki values were calculated from the equation: [formula]

NMDA-Induced Lethality = assay: In vivo protection in the mouse against NMDA-induced lethality; set-up: species or system male Swiss-Webster mice; details: ip; for ED50: Mus musculus, read-out: PD50
Experimental: (§1) According to the method described by Ferkany et al. (1988), the test compounds were administered ip to four male Swiss-Webster mice (26-34 g) each, following 30 minutes later, 200 mg/kg of NMDA was administered to the mice each. […] Those compounds that protected three or more of the mice at any of the doses were evaluated further by determining the ED50 values using three or more doses with the eight mice per dose. The ED50 was estimated by the method of Litchfield and Wilcoxin (1949). Water-soluble compounds were dissolved in distilled water and administered in a volume of 10 mL/kg. Water-insoluble compounds were suspended in an aqueous solution of 0.5% methyl cellulose and administered in a volume of 20 mL/kg.

NMDA recognition site = details: Lehman et al., 1988; Murphy et al., 1987; cited from earlier work
[1] = Lethality of NMDA in mice; set-up: species or system male Swiss-Webster mice; details: mouse, in vivo
Experimental: as §1

[2] = 30 minutes before 200 mg/kg NMDA, Litchfield and Wilcoxin

| SMILES | Ki (NMDA receptor) | ED50 (NMDA-Induced Lethality; 30 minutes before 200 mg/kg NMDA, eight mice per dose, Litchfield and Wilcoxin) | Confidence Limits (of PD50) (NMDA-Induced Lethality; [2]) | Slope (NMDA-Induced Lethality; [2]) | antagonists at the NMDA recognition site (NMDA recognition site) | ED50 (NMDA-Induced Lethality) | mortality ([1]; 200 mg/kg NMDA, read-out: mice died at 200 mg/kg NMDA) | LD50 ([1]; mice) |
| --- | --- | --- | --- | --- | --- | --- | --- | --- |
| O=C(O)[C@H]1C[C@@H](CP(=O)(O)O)CCN1 (relative stereo) [CGS-19755, cis-4-(phosphonomethyl)-2-piperidinecarboxylicacid] | 112 nM | 2 mg/kg | 1.2-3.6 | 2.46 | high-affinity antagonists |  |  |  |
| O=C(O)C1C/C(=C/P(=O)(O)O)CCN1 (centres unmarked) [E-4-(phosphonomethylidene)-2-piperidinecarboxylic acid] | 590 nM |  | 0.5-2.2 | 1.96 |  | 1.1 mg/kg |  |  |
| CN[C@H](CC(=O)O)C(=O)O [NMDA, N-methyl-D-aspartate] |  |  |  |  |  |  | ~90% | 164 mg/kg |
